This passage reports IC50 results from paper PMC4504079, “Andrographolide sodium bisulphite-induced inactivation of urease: inhibitory potency, kinetics and mechanism” (BMC Complementary and Alternative Medicine, 2015).

Structures are written as SMILES.

In one assay the target is jack bean urease (JBU) (Canavalia ensiformis, UniProt P07374). As to the kind of experiment: urease activity assay (modified Berthelot ammonia determination), slow-binding progress curves. It is filed as biochemical.
Assay [1] deals with T1, Helicobacter pylori urease (HPU) (Helicobacter pylori, UniProt P69996).
T1 construct: gene ureB; crude urease solution from H. pylori ATCC 43504
As to the kind of experiment: urease activity assay on desalted crude bacterial extract (modified Berthelot). It counts as biochemical.

T1 sequence (P69996 whole entry): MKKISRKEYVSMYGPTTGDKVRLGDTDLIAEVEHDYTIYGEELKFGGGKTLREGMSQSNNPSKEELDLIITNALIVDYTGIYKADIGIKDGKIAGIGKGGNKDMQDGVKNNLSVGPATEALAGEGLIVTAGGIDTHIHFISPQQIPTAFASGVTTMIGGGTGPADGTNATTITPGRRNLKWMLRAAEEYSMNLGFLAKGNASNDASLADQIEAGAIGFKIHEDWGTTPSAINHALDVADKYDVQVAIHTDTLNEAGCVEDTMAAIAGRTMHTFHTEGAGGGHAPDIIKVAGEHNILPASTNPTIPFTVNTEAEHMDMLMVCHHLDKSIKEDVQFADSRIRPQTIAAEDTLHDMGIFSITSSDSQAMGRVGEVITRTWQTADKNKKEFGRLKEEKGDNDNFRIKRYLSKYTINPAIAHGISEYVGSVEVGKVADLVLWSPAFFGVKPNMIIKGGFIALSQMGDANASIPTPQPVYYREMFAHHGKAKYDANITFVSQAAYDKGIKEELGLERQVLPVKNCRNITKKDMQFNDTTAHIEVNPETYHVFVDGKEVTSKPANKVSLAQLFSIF
Chain of jack bean urease (JBU) (P07374 whole entry): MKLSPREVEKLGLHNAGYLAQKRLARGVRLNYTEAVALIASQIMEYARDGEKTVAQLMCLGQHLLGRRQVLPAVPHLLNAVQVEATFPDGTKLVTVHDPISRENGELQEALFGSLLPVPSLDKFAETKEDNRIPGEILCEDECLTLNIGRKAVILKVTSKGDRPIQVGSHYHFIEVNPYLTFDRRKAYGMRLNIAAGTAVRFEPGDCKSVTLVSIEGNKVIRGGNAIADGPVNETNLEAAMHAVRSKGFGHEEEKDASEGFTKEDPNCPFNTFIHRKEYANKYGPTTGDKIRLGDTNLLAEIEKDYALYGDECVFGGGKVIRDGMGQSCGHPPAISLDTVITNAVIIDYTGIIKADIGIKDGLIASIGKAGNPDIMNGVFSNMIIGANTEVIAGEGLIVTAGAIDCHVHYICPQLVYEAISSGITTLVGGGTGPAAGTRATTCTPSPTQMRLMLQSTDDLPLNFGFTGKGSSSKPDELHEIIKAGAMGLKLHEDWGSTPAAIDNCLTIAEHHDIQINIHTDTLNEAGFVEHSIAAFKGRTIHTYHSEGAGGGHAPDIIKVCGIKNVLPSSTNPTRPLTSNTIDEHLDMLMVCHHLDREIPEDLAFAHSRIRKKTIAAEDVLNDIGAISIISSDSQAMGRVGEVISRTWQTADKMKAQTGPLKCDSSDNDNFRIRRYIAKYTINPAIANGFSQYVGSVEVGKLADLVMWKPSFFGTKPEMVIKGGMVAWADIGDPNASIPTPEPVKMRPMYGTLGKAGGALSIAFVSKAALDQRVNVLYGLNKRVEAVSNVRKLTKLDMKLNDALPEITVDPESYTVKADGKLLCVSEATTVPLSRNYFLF

Usually IC50 stands for the concentration needed to halve the response being measured. As for `C=C1CC[C@@H]2[C@](C)(CO)[C@H](O)CC[C@@]2(C)[C@@H]1CC(C1=CCOC1=O)S(=O)(=O)O` (some centres unmarked) [ASB, Andrographolide sodium bisulphite], the IC50 at jack bean urease (JBU) is 3.28 ± 0.13 mM; in assay [1], 3.17 ± 0.34 mM.
